Laboratory results reported in patent US9359405B2, “Antagonists of the interleukin-1 receptor” (Phlogo ApS, priority 2011, dated 2016).
No end group written: not given here.

Key:
[1] = test system: cerebellar granule neurons; experiment: Survival assay, cerebellar granule neurons, low-potassium apoptosis; assay type: cell-based, rat; settings: 5 mM KCl
Protocol: Survival assay: Primary cultures of CGN were plated at a density of 100,000 cells/cm2 on poly-L-lysine coated 8-well permanox slides in Neurobasal-A medium (Gibco BRL) supplemented with 2% (v/v) B27, 0.5% (v/v) glutamax, 100 units/mL penicillin, 100 µg/mL streptomycin and KCl, making the final concentration of KCl in the medium 40 mM. 24 hours after plating, cytosine-b-D-arabinofuranoside (Ara-C; Sigma-Aldrich) was added to a final concentration of 10 μM to avoid proliferation of glial cells, after which the neurons were allowed to differentiate for a further 6 days at 37° C. Apoptotic cell death was induced by washing twice and changing the medium to Basal Medium Eagle (BME; Gibco BRL) supplemented with 1% (v/v) glutamine, 100 U/mL penicillin and 100 µg/mL streptomycin, 3.5 g D-glucose/L and 1% (v/v) sodium pyruvate (Gibco BRL) together with various concentrations of peptide. Thereby the concentration of potassium in the cultures was reduced to 5 mM KCl (Ditlevsen et al., 2003). Two days after induction of apoptosis, the cells were fixed with 4% (v/v) formaldehyde and stained with Hoechst 33258 as described for the survival assay employing hippocampal neurons.

[2] = test system: collagen-induced arthritis (CIA); experiment: Collagen-induced arthritis in rats, treatment dpi 8-15 (Example 14); assay type: in vivo, rat; settings: 10.0 mg/kg s.c. daily dpi 8-15
Protocol: Induction of CIA. The CIA study was performed on a total of 40 male Wistar rats with an average weight of 150 g at the beginning of the experiment. CIA was induced by subcutaneous (s.c.) injection of bovine collagen type II (CII, Sigma-Aldrich) solubilised in 0.05 M acetic acid (2 mg/ml), and then emulsified 1:1 with CFA (Sigma-Aldrich) containing […] heat-inactivated M. tuberculosis. Under inhalation anaesthesia (Isofluran, 3%) 250 μl of the emulsion containing 250 μg of CII and […] was injected (s.c.) at the tail base (post-immunization day, dpi 0).
Treatment design. At dpi 8, before onset of clinical signs, all animals were randomly divided into two groups, 20 rats per group, and were dosed daily during 8 days (dpi 8-15) with Ilantafin (10.0 mg/kg, s.c.) or vehicle (PBS, 1.0 ml/kg, s.c.). […]
Clinical scores. An observer blinded to treatment groups evaluated the severity of arthritis employing the following grading system: O— no redness or swelling in foot; 1—slight redness in foot or redness and swelling in single interfalangeal joints; 2—moderate swelling and redness in ankle and metatarsal part of foot; 3—marked swelling and redness of entire foot, restricted usage of foot in locomotion; 4—marked swelling and redness of entire foot, impossibility of usage foot in locomotion and rearing. […]

[3] = test system: collagen-induced arthritis (CIA); experiment: Collagen-induced arthritis in rats, treatment from day 15 (Example 7); assay type: in vivo, rat; settings: 3.3 and 10 mg/kg s.c. daily from day 15
Description: Rheumatoid arthritis is a chronic, inflammatory, systemic autoimmune disease that affects about 1% of the general population in Western countries. Collagen-induced arthritis (CIA) in rats is a widely employed animal model for the screening of anti-inflammatory compounds. Collagen bovine, type II (CII, Cat.no.20021, Lot 090209, Chondrex, USA), Complete Freund's Adjuvant, containing 0.1% of Mycobacterium tuberculosis (CFA, Cat.no. F5581, Lot 049K8700, Sigma-Aldrich), Incomplete Freund's Adjuvant (IFA, Cat.no. F5506, Lot 058K8702, Sigma). PBS (Panum Institute, Copenhagen University). Isofluran (Baxter). Animals were immunized twice: on day 0 (CII+CFA) and on day 10 (CII+IFA, booster). On day 15 the mean clinical score reached a value of 5.0 and all animals were divided into 3 groups so that the severity of disease (mean clinical score) in all groups was almost equal. The peptide (two doses, 3.3 and 10 mg/kg) was administered subcutaneously daily starting at day 15. The clinical evaluation of the arthritis severity was assessed using the following grading system: O— no redness or swelling in foot and palm; 1—slight swelling or redness in metatarsophalangeal joint and ankle joint foot or palm; 2—progressed swelling/inflammation and redness from ankle to mid foot or in entire palm; 3—swelling/inflammation of entire foot except toes; 4—swelling and inflammation of entire foot including toes.

## SGRKSSKMQA [Ilantafin]
[1]
  survival effect compared with IGF-1: comparable with the effect of the neuronal survival factor IGF-1
[1]; 2 days
  neuronal survival / cell death (apoptosis) induced by lowering potassium: reduces neuronal cell death (apoptosis)
[2]
  morbidity (percentage of animals reached clinical index 7): significantly reduced morbidity by dpi 12
  severity of CIA (clinical score): attenuated severity of CIA on dpi 13-15
[3]
  clinical manifestations (clinical score) of CIA: abrogates an increase in clinical manifestations of CIA in rats
